Values of other authors as cited in article PMC7904743, “WIDOCK: a reactive docking protocol for virtual screening of covalent inhibitors” (Journal of Computer-Aided Molecular Design, 2021).
Where two headings read alike, the source gives them in different places.

Tests used:
[1] = thiol reactivity, cited from earlier work
OTUB2 = details: experimental actives if % labeling higher than 50%, cited from earlier work
NUDT7 = details: protein labeling at 200 μM; experimental actives if % labeling higher than 50%; cited from earlier work
[2] = natural log of average rate constant k
[3] = natural logarithm of average rate constant
[4] = natural log of average kinetic rate constant
[5] = natural log of average rate constant

Compound | ln(avg k) [1, 2] | ln(avg k) [1, 3] | OTUB2 % labeling (OTUB2) [%] | NUDT7 % labeling (NUDT7) [%] | ln(avg k) [1, 4] | ln(avg k) [1, 5] | OTUB2 % labeling (OTUB2; OTUB2 protein labeling) [%]
Cc1ccc(CN(C)C(=O)CCl)c(C)c1 [PCM-0102552, Cc1ccc(CN(C)C(=O)CCl)c(C)c1] | -16.104 | -16.104 | 0 | 19 | – | – | –
O=C(CCl)Nc1ccc(N2CCCC2=O)cc1 [PCM-0102915, O=C(CCl)Nc1ccc(N2CCCC2=O)cc1] | – | – | – | 0 | -15.819 | -15.819 | 49
O=C(CCl)N1CCN(c2ccc([N+](=O)[O-])cc2)CC1 [PCM-0102094, O=C(CCl)N1CCN(c2ccc([N+](=O)[O-])cc2)CC1] | -15.009 | -15.009 | 0 | 27 | – | – | –
Cc1cccc(CN2CCN(C(=O)CCl)CC2)c1 [PCM-0102340, Cc1cccc(CN2CCN(C(=O)CCl)CC2)c1] | -15.593 | -15.593 | 17 | 0 | – | – | –
O=C(CCl)NCc1cc(F)cc(F)c1 [PCM-0102790, O=C(CCl)NCc1cc(F)cc(F)c1] | – | – | – | 0 | -16.548 | -16.548 | 0
CCc1cccc(C)c1NC(=O)CCl [PCM-0102618, CCc1cccc(C)c1NC(=O)CCl] | -17.017 | -17.017 | 0 | 11 | – | – | –
O=C(CCl)N(c1ccccc1)C1CCS(=O)(=O)C1 (stereo not shown) [PCM-0102755, O=C(CCl)N(c1ccccc1)C1CCS(=O)(=O)C1] | – | – | – | 17 | -15.253 | -15.253 | 0
O=C(CCl)Nc1cc(Cl)ccc1-n1cncn1 [PCM-0102258, O=C(CCl)Nc1cc(Cl)ccc1-n1cncn1] | -15.839 | -15.839 | 0 | 21 | – | – | –
O=C(CCl)NCc1cc(Br)cs1 [PCM-0103050, O=C(CCl)NCc1cc(Br)cs1] | – | – | – | 13 | -16.422 | -16.422 | 84
CNC(=O)c1ccc(NC(=O)CCl)cc1 [PCM-0102267, CNC(=O)c1ccc(NC(=O)CCl)cc1] | -15.048 | -15.048 | 0 | 0 | – | – | –
O=C(CCl)Nc1ccc(N2CCCCC2)nc1 [PCM-0102812, O=C(CCl)Nc1ccc(N2CCCCC2)nc1] | – | – | – | 14 | – | -15.797 | –
C#CCN1CCN(C(=O)CCl)CC1 [PCM-0102811, C#CCN1CCN(C(=O)CCl)CC1] | – | – | – | 0 | -15.973 | -15.973 | 0
CC(c1ccccc1)N(C)C(=O)CCl (stereo not shown) [PCM-0102478, CC(c1ccccc1)N(C)C(=O)CCl] | -16.049 | -16.049 | 0 | 10 | – | – | –
CC(C)c1cccc(NC(=O)CCl)c1 [PCM-0102429, CC(C)c1cccc(NC(=O)CCl)c1] | -15.994 | -15.994 | 23 | 10 | – | – | –
Cc1cc(S(N)(=O)=O)cc(NC(=O)CCl)c1C [PCM-0102165, Cc1cc(S(N)(=O)=O)cc(NC(=O)CCl)c1C] | -16.164 | -16.164 | 12 | 9 | – | – | –
C#Cc1cccc(NC(=O)CCl)c1 [PCM-0102735, C#Cc1cccc(NC(=O)CCl)c1] | – | – | – | 0 | -17.384 | -17.384 | 9
O=C(CCl)N1CCC2CCCCC2C1 (stereo not shown) [PCM-0102474, O=C(CCl)N1CCC2CCCCC2C1] | – | -15.859 | 0 | – | – | – | –
O=C(CCl)NC1CCC2(CC1)OCCO2 [PCM-0102820, O=C(CCl)NC1CCC2(CC1)OCCO2] | – | – | – | – | -16.468 | – | 13
O=C(CCl)Nc1ccccc1O [PCM-0102907, O=C(CCl)Nc1ccccc1O] | – | – | – | 36 | – | -17.265 | –
CC(=O)NC1CCCN(C(=O)CCl)C1 (stereo not shown) [PCM-0102934, CC(=O)NC1CCCN(C(=O)CCl)C1] | – | – | – | 0 | – | -15.534 | –
O=C(CCl)Nc1ccc2c(c1)NC(=O)CO2 [PCM-0102890, O=C(CCl)Nc1ccc2c(c1)NC(=O)CO2] | – | – | – | 8 | – | – | 32
Cc1ccc(NC(=O)CCl)c(Cl)c1 [PCM-0102408, Cc1ccc(NC(=O)CCl)c(Cl)c1] | -16.426 | – | – | 18 | – | – | –
C=CC(=O)Nc1nc(-c2ccc(O)cc2)cs1 [PCM-0102884, C=CC(=O)Nc1nc(-c2ccc(O)cc2)cs1] | – | – | – | – | -17.011 | – | 0
O=C(CCl)N1CCc2[nH]c3ccccc3c2C1 [PCM-0102591, O=C(CCl)N1CCc2[nH]c3ccccc3c2C1] | -14.023 | – | – | 22 | – | – | –
Cc1cc(NC(=O)CCl)ccc1Br [PCM-0102770, Cc1cc(NC(=O)CCl)ccc1Br] | – | – | – | 21 | – | -15.518 | –
CN(Cc1cccc(Cl)c1)C(=O)CCl [PCM-0102976, CN(Cc1cccc(Cl)c1)C(=O)CCl] | – | – | – | – | -16.166 | – | 0
Cc1cc(N2CCCC2)ccc1NC(=O)CCl [PCM-0102301, Cc1cc(N2CCCC2)ccc1NC(=O)CCl] | -16.271 | – | – | 24 | – | – | –

Compound | ln(avg k) [1, 2] | ln(avg k) [1, 3] | OTUB2 % labeling (OTUB2) [%] | NUDT7 % labeling (NUDT7) [%] | ln(avg k) [1, 4] | ln(avg k) [1, 5] | OTUB2 % labeling (OTUB2; OTUB2 protein labeling) [%]
O=C(CCl)Nc1ccc2[nH]c(C(F)(F)F)nc2c1 [PCM-0102151, O=C(CCl)Nc1ccc2[nH]c(C(F)(F)F)nc2c1] | -15.575 | – | – | 7 | – | – | –
CC1CCC(N(C(=O)CCl)C2CC2)CC1 (stereo not shown) [PCM-0102792, CC1CCC(N(C(=O)CCl)C2CC2)CC1] | – | – | – | 13 | – | -16.001 | –
Cc1ccc(CN2CCCN(C(=O)CCl)CC2)cc1 [PCM-0103056, Cc1ccc(CN2CCCN(C(=O)CCl)CC2)cc1] | – | – | – | 0 | – | – | 0
Cc1cc(NC(=O)CCl)n(C)n1 [PCM-0102383, Cc1cc(NC(=O)CCl)n(C)n1] | -15.428 | – | – | 0 | – | – | –
O=C(CCl)Nc1nc(-c2ccco2)cs1 [PCM-0102979, O=C(CCl)Nc1nc(-c2ccco2)cs1] | – | – | – | 25 | – | -15.876 | –
O=C(CCl)Nc1c(Cl)cccc1Cl [PCM-0102234, O=C(CCl)Nc1c(Cl)cccc1Cl] | -17.086 | – | – | 64 | – | – | –
O=C(CCl)Nc1nncs1 [PCM-0102427, O=C(CCl)Nc1nncs1] | – | -16.300 | 0 | – | – | – | –
CN(C)c1ccc(NC(=O)CCl)cc1 [PCM-0102859, CN(C)c1ccc(NC(=O)CCl)cc1] | – | – | – | 0 | – | -14.235 | –
Cc1cccc([N+](=O)[O-])c1NC(=O)CCl [PCM-0102176, Cc1cccc([N+](=O)[O-])c1NC(=O)CCl] | -16.601 | – | – | 22 | – | – | –
Cc1cccc(N2CCN(C(=O)CCl)CC2)c1C [PCM-0102215, Cc1cccc(N2CCN(C(=O)CCl)CC2)c1C] | -15.103 | – | – | 29 | – | – | –
CC(NC(=O)CCl)C(=O)O (stereo not shown) [PCM-0102990, CC(NC(=O)CCl)C(=O)O] | – | – | – | 0 | – | -18.115 | –
Cc1nc(NC(=O)CCl)sc1C [PCM-0102124, Cc1nc(NC(=O)CCl)sc1C] | – | -15.463 | 0 | – | – | – | –
COc1ccc(NC(=O)NC(=O)CCl)cc1 [PCM-0102268, COc1ccc(NC(=O)NC(=O)CCl)cc1] | -15.795 | – | – | 0 | – | – | –
O=C(CCl)NC1CCCCCCC1 [PCM-0102318, O=C(CCl)NC1CCCCCCC1] | -16.468 | – | – | 0 | – | – | –
O=C(CCl)NCC#Cc1ccccc1 [PCM-0103007, O=C(CCl)NCC#Cc1ccccc1] | – | – | – | – | -16.727 | – | 60
Cc1ccc(NC(=O)CCl)c(C)c1 [PCM-0103041, Cc1ccc(NC(=O)CCl)c(C)c1] | – | – | – | 0 | – | -16.644 | –
O=C(CCl)Nc1ccc(N2CCCCCC2)cc1 [PCM-0102199, O=C(CCl)Nc1ccc(N2CCCCCC2)cc1] | -15.785 | – | – | 8 | – | – | –
Cc1ccccc1CNC(=O)CCl [PCM-0102253, Cc1ccccc1CNC(=O)CCl] | -16.467 | – | – | 0 | – | – | –
Cc1ccccc1CN1CCCN(C(=O)CCl)CC1 [PCM-0102911, Cc1ccccc1CN1CCCN(C(=O)CCl)CC1] | – | – | – | 0 | – | – | 0
CC1CCN(c2ccc(NC(=O)CCl)cc2)CC1 [PCM-0102235, CC1CCN(c2ccc(NC(=O)CCl)cc2)CC1] | -16.035 | – | – | 0 | – | – | –
O=C(CCl)N(C1CC1)C1CCCc2ccccc21 (stereo not shown) [PCM-0102774, O=C(CCl)N(C1CC1)C1CCCc2ccccc21] | – | – | – | – | -16.197 | – | 0
O=C(CCl)Nc1ccc2c(c1)OC1(CCCC1)O2 [PCM-0102801, O=C(CCl)Nc1ccc2c(c1)OC1(CCCC1)O2] | – | – | – | 10 | – | -15.785 | –
N#CC1(NC(=O)CCl)CCCC1 [PCM-0102136, N#CC1(NC(=O)CCl)CCCC1] | -15.612 | – | – | 0 | – | – | –
CC1CCCCN1C(=O)CCl (stereo not shown) [PCM-0102434, CC1CCCCN1C(=O)CCl] | -15.958 | – | – | 0 | – | – | –
O=C(CCl)NC1CCC(C(F)(F)F)CC1 (stereo not shown) [PCM-0102864, O=C(CCl)NC1CCC(C(F)(F)F)CC1] | – | – | – | 0 | – | -16.404 | –
O=C(CCl)N1N=C(c2ccco2)CC1c1cccs1 (stereo not shown) [PCM-0102182, O=C(CCl)N1N=C(c2ccco2)CC1c1cccs1] | – | -14.540 | 0 | – | – | – | –
